# Where two headings read alike, the source gives them in different places. Marks after values point to notes of the source that are not given here.
# What was measured:
# P. gingivalis W50 = test: Susceptibility of P. gingivalis to Frd inhibiting agents: growth in liquid culture, OD 620 nm over 50 h; assay type: cell-based, Porphyromonas gingivalis
# Method: (§1) The effect of Frd inhibiting agents on P. gingivalis was carried out in liquid cultures. Briefly W50 was cultured in 200 mL BHI medium until OD of 0.6 (˜2.9×10^8 cfu/mL). The cells were then resuspended in fresh growth medium to a final concentration of 2.5×10^7 cfu/mL. Oxantel pamonate, morantel citrate and thiabendazole (Sigma) were dissolved in DMSO to achieve stock concentrations of 250 mM. 4 μL of the test solution was then mixed with 196 μL of cell suspension and transferred into 96 well flat bottom plates followed by incubation at 37° C. under anaerobic conditions and monitored hourly over a 50 h period by measuring the optical density of the culture at 620 nm using an iEMS microplate reader (Labsystems OY Research Technologies Division). Mean generation times of P. gingivalis in the presence of different inhibiting agents were calculated by […] where Nt and N0 are cells population at time t and time zero, respectively.
# [1] = test system: P. gingivalis ATCC 33277 biofilm; test: Flowcell biofilm culture and CLSM analysis (COMSTAT); assay type: cell-based, Porphyromonas gingivalis
# From the text: The biofilm culture of P. gingivalis ATCC 33277 in flow cells was similar to that previously described with several modifications. A 3-channel flow cell system (Stovall Life Science, USA) was set up in an anaerobic chamber (MK3 Anaerobic workstation; Don Whitley Scientific Ltd.) and was modified with silicon pump tubing (Gilson, France) and stopcocks for inoculation, testing and staining of the bacterial biofilms. All parts were assembled and 0.5% sodium hypochlorite was pumped into the system and left overnight to sterilise the system. Sterile water (200 mL) was then used to flush the system before growth medium addition. The system was inoculated with 1 mL of an exponentially growing P. gingivalis diluted to 0.1 OD600. The system was incubated for 1 h prior to constant flow (0.2 mL/min) of 5× diluted BHI (Oxoid) supplemented with 0.1 g/L cysteine, 1 mg/L heamin and 1 mg/L vitamin K. […] The flow of medium was resumed for another 10 min to wash off any unbound cells due to testing. BacLight stain (Molecular Probes) was then used to stain the biofilm in situ (see below).
# Confocal laser scanning microscopy (CLSM) of the bacterial biofilms was carried out on a Meta 510 Confocal Microscope with an inverted stage (Zeiss). Horizontal (xy) optodigital sections, each 2 μm thick over the entire thickness of the biofilm (z) were imaged using a 63× objective at 512×512 pixel (0.28 μm per pixel), with each frame at 143.86 μm (x)×143.86 μm (y). To determine reproducibility across the biofilm 5 images at random positions from each of two biological replicates were obtained at wavelengths of 488 nm and 568 nm for each channel. All images obtained were analysed using COMSTAT software. Microcolonies were defined as cluster of cells with >500 pixel counts.
# [2] = test system: P. gingivalis (ATCC 33277) biofilm; test: Viability of cells dispersed by Oxantel treatment, static 24 well biofilm assay, colony forming units; assay type: cell-based, Porphyromonas gingivalis; conditions: especially for the 12.5 μM Oxantel treated biofilm, 30 min
# Method: To test the viability of cells dispersed by Oxantel treatment, a static biofilm assay was performed as described above but with slight modifications. Briefly P. gingivalis (ATCC 33277) was allowed to form biofilm in 24 well microplates after 18 h incubation. The free floating planktonic cells were first removed and the biofilm washed once with PBS. 1 mL of 125 uM or 12.5 uM of Oxantel or sterile water […] was added to each well and incubated for 30 min. The number of dispersed P. gingivalis cells that are still viable was determined by cultural analysis on horse blood agar plates after serial dilution in BHI.
# [3] = test system: P. gingivalis ATCC 33277 biofilm; test: Biofilm formation in static 96 well model, crystal violet stain; assay type: cell-based, Porphyromonas gingivalis
# Method: P. gingivalis biofilm formation over 48 h in a static 96 well model was determined as described previously. Briefly P. gingivalis ATCC 33277 cells were resuspended to a final cell density of 2.5×10^7 before mixing with the test substances followed by transferring into 96 well flat bottom plates and incubated anaerobically at 37° C. Assessment of the biofilm mass was carried out at 24 h and 48 h by washing the cells twice with 250 μL of ultra pure water to remove loosely adhered cells followed by drying at 37° C. for 3 h. The dried biofilm was then stained in a solution of 0.1% crystal violet for 15 min and washed 2 times with 250 μL ultra pure water. The crystal violet stain was then dissolved from the biofilm using a solution of 80% ethanol and 20% acetone for 2 min through repeated pipetting before transferring to a new 96 well plate for measurement of the optical density at 620 nm.
# P. gingivalis ATCC 33277 = test: Effect of Oxantel on growth of P. gingivalis ATCC 33277 in liquid culture over 50 h; assay type: cell-based; conditions: Porphyromonas gingivalis, ATCC33277; P. gingivalis ATCC 33277, growth over 50 h
# [4] = Solubility limit seen in the growth assay; assay type: physicochemical; conditions: growth assay medium (P. gingivalis W50 liquid culture), 37 °C, kinetic from dmso stock, read-out: insolubility (concentration above which insoluble)
# Method: as §1
# [5] = 12.5 μM Oxantel vs Control, Biological Replicate 1
# [6] = 12.5 μM Oxantel, Biological Replicate 1
# [7] = 12.5 μM Oxantel, Biological Replicate 2, first channel
# [8] = 12.6 μM Oxantel (so in the source), Biological Replicate 2, second channel
# [9] = 125 μM Oxantel vs Control, Biological Replicate 1
# [10] = 125 μM Oxantel, Biological Replicate 1
# [11] = Biological Replicate 2, based on average of both replicates over the control sample
# [12] = mature biofilm treated with Oxantel (125 μM or 12.5 μM, 30 min) vs control, P<0.01
# [13] = Porphyromonas gingivalis, P. gingivalis W50, growth over 50 h, read-out: MIC
structure (smiles),measurement,setting,value
Cc1ccsc1/C=C/C1=NCCCN1C [Morantel],MIC,"P. gingivalis W50; P. gingivalis W50, growth over 50 h, read-out: MIC",2800 µM
same,MIC,"P. gingivalis W50; Porphyromonas gingivalis, W50, 50 h, P. gingivalis W50, growth over 50 h",~3000 µM
CN1CCCN=C1/C=C/c1cccc(O)c1 [Oxantel],Total biomass,"[1]; 12.5 μM Oxantel added to 16 h biofilm, Biological Replicate 1, COMSTAT, 3-channel flow cell",1.26^a μm^3/μm^2
same,Average microcolony area % reduction,[1]; [5],37.2%
same,Average thickness % reduction,[1]; [5],39.7%
same,Total biomass % reduction,[1]; [5],30.1%
same,"Ave microcolonies (by pixel, minimum 500)",[1]; [6],17.4
same,Average microcolony area,[1]; [6],147.65^a μm^2
same,Average thickness,[1]; [6],0.70^a μm
same,Surface to biovolume ratio,[1]; [6],2.04^a μm^2/μm^3
same,"Ave microcolonies (by pixel, minimum 500)",[1]; [7],18.4
same,Average microcolony area,[1]; [7],119.571^a μm^2
same,Average thickness,[1]; [7],0.911^a μm
same,Surface to biovolume ratio,[1]; [7],2.331^a μm^2/μm^3
same,Total biomass,[1]; [7],1.451^a μm^3/μm^2
same,"Ave microcolonies (by pixel, minimum 500)",[1]; [8],19.2
same,Average microcolony area,[1]; [8],104.881^a μm^2
same,Average thickness,[1]; [8],0.891^a μm
same,Surface to biovolume ratio,[1]; [8],2.541^a μm^2/μm^3
same,Total biomass,[1]; [8],1.621^a μm^3/μm^2
same,Total biomass,"[1]; 125 μM Oxantel added to 16 h biofilm, Biological Replicate 1",1.00^a μm^3/μm^2
same,Average microcolony area % reduction,[1]; [9],50.94%
same,Average thickness % reduction,[1]; [9],63.2%
same,Total biomass % reduction,[1]; [9],44.4%
same,"Ave microcolonies (by pixel, minimum 500)",[1]; [10],20.8
same,Average microcolony area,[1]; [10],115.42^a μm^2
same,Average thickness,[1]; [10],0.43^a μm
same,Surface to biovolume ratio,[1]; [10],2.27^b μm^2/μm^3
same,Average microcolony area % reduction,[1]; [11],37.9%
same,Average thickness % reduction,[1]; [11],49.9%
same,Total biomass % reduction,[1]; [11],42.8%
same,number of microcolonies,[1]; Oxantel treated vs control samples,no significant difference
same,biofilm depth,[1]; [12],significant reduction
same,size of microcolonies,[1]; [12],significant reduction
same,viability of cells released from the biofilm,[2],remained viable
same,concentration that significantly reduced the biofilm mass at 24 h,"[3]; ATCC 33277, 24 h biofilm, subMIC",≥ 0.1 µM
same,concentration necessary for an inhibitory effect on the biofilm mass at 48 h,"[3]; ATCC 33277, 48 h biofilm",≥ 3.9 µM
same,concentration with positive inhibition of growth,"P. gingivalis W50; P. gingivalis W50, from the growth curves",more than 15 μM
same,MIC,P. gingivalis W50; [13],112 µM
same,MIC,P. gingivalis ATCC 33277,125 µM
c1ccc2[nH]c(-c3cscn3)nc2c1 [Thiabendazole],solubility,[4],> 3000 µM
same,concentration required for slight inhibitory effects on the growth,"P. gingivalis W50; P. gingivalis W50, growth over 50 h",more than 1 mM
same,MIC,P. gingivalis W50; [13],> 3000 µM
